From patent US9427425B2, “Extracts, fractions and compositions comprising acetogenins and their applications” (LAILA NUTRACEUTICALS, priority 2009, dated 2016)

What was measured:
[1] = test system: TNFα; assay: Inhibition of LPS induced TNFα in THP-1 human monocytes (EIA); format: cell-based
Method: Inhibition of Tumor necrosis factor-α (TNF-α) in vitro by extracts, fractions and compounds of Annona squamosa: The anti-inflammatory activities of extracts, fractions and compounds of Annona squamosa were assessed in a cell based in vitro assay. Briefly, THP-1 human monocytes cells were washed and re-suspended in phenol red free Dulbecco's Modified Eagle's Medium (DMEM) supplemented with 1% fetal Bovine serum (FBS). Equal number of cells was added to each well of a 96-well TC plate and the cells were pretreated for 2 h with various concentrations (ranging from 0.1 to 200 ng/mL; solutions prepared in culture medium from a stock solution containing 50 mg/l mL DMSO of each test compound) of extracts, fractions and compounds of Annona squamosa. The inflammatory response was induced by 100 ng/mL of LPS for 4 h at 37° C. in presence of 5% CO2. The vehicle control culture wells received 0.1% DMSO in culture medium. The cell culture supernatants were collected and assessed for secretory pro-inflammatory cytokine, TNFα. The TNFα concentration was quantitatively measured by highly specific and sensitive Enzyme Immuno Assay (EIA) kit supplied by R&D Systems, USA. The enzyme immuno assay was performed based on the protocol provided by the vendor. The inhibitory concentration for 50% inhibition (IC50) of TNFα was determined from a plot drawn for ingredient concentrations against corresponding TNFα levels. […] Table 1 is a summary of 50% inhibitory (IC50) concentrations of various extracts, fractions and compounds derived from Annona squamosa plant parts in cell based in vitro model.

[2] = test system: MCP-1; assay: Serum cytokine multiplex assay in FCA induced rats: MCP-1; format: in vivo, Sprague Dawley rats; conditions: 10 mg/kg; vehicle control = 1.000
Description: (§1) Further, the levels of a wide range of cytokine biomarkers were estimated in the serum of the treatment groups supplemented with LI12100 and the control group using multiplex assay (RCYTOMAG 80K) following the instructions provided by the vendor (Millipore Corporation, Billerica, Mass., USA). […] The cytokines modulated by LI12100 include TNFα, IFNγ, IL-1β, IL-2, IL-4, IL-6, IL-13, MCP-1, Rantes and Eotaxin.
(§2) Further, the levels of a wide range of cytokine biomarkers were estimated in the serum of the treatment groups and the control group using multiplex assay (RCYTOMAG 80K) following the instructions provided by the vendor (Millipore Corporation, Billerica, Mass., USA). […] The cytokines ameliorated by LI12100 include TNFα, IFNγ, IL-1β, IL-2, IL-4, IL-6, IL-13, MCP-1, Rantes and Eotaxin as summarized in Table 3.

[3] = test system: IL-6; assay: Serum cytokine multiplex assay in FCA induced rats: IL-6; format: in vivo, Sprague Dawley rats; conditions: 10 mg/kg; vehicle control = 1.000
Description: as §1, §2

[4] = test system: Freund's Complete Adjuvant induced paw edema; assay: Freund's Complete Adjuvant induced arthritis model, paw edema; format: in vivo, Sprague Dawley rats; conditions: 10 mg/kg positive control
Method: The potent in vitro anti-inflammatory efficacy shown by the Annona squamosa leaf ethyl acetate extract (LI12101; standardized to 0.2% squamocin C) was then tested in an in vivo system using Freund's Complete Adjuvant induced arthritis model of Sprague Dawley rats. The anti-inflammatory efficacy of LI12101 (100 mg/kg body weight per day) was evaluated in Freund's Complete Adjuvant induced arthritis model of Sprague Dawley rats and compared its efficacy with that shown by the positive control group supplemented with Prednisolone at 10 mg/kg body weight. The treatment group rats were supplemented daily with LI12101 or prednisolone. […] Blood samples were collected from each animal at regular intervals and paw volumes were measured by Plethysmography equipment on the day of FCA injection and after 13 days of FCA inoculation. […]
To further confirm the in vivo anti-inflammatory activity and study the dose dependent effect, the methanol extract of Annona squamosa leaves (LI12100; standardized to 0.24% squamocin C) was evaluated in Freund's Complete Adjuvant induced arthritis model of Sprague Dawley rats. The anti-inflammatory efficacy of LI12100 (at 50 mg/kg and 100 mg/kg body weight per day) was evaluated in FCA induced arthritis model of Sprague Dawley rats and compared its efficacy with that shown by the positive control group supplemented with Prednisolone at 10 mg/kg body weight. […]

[5] = test system: Eotaxin; assay: Serum cytokine multiplex assay in FCA induced rats: Eotaxin; format: in vivo, Sprague Dawley rats; conditions: 10 mg/kg; vehicle control = 1.000
Description: as §1, §2

[6] = test system: TNFα; assay: Serum cytokine multiplex assay in FCA induced rats: TNFα; format: in vivo, Sprague Dawley rats; conditions: 10 mg/kg; vehicle control = 1.000
Description: as §1, §2

[7] = test system: TNFα; assay: Serum TNFα in FCA challenged rats (enzyme-immuno assay kit); format: in vivo, Sprague Dawley rats; conditions: 10 mg/kg
Method: After 14 days of FCA challenge, serum TNFα was quantitatively measured by enzyme-immuno assay kit (R&D Systems, USA). The bars a, b and c represent the levels of the cytokines in groups supplemented with control, LI12101 (100 mg/kg) and prednisolone (10 mg/kg) respectively. Each bar represents mean±SD, N=6. * p<0.05 and ** p<0.005 (vs. control).
After 14 days of FCA challenge, serum TNFα[…] was quantitatively measured by enzyme-immuno assay kit (R&D Systems, USA). The bars represent the levels of the cytokines in groups supplemented with control, LI12100 at 50 mg/kg body weight, LI12100 at 100 mg/kg body weight and prednisolone (10 mg/kg) respectively. Each bar represents mean±SD, N=6.
The levels of cytokine tumor necrosis factor alpha (TNFα) were evaluated in blood serum collected 13 days after FCA challenge. The serum cytokine levels were measured using enzyme-immune assay kit supplied by R & D systems, USA.
The levels of cytokine tumor necrosis factor-alpha (TNFα) were evaluated in blood serum collected 14 days after FCA challenge. The serum cytokine levels were measured using enzyme-immune assay kit supplied by R & D systems, USA.

[8] = test system: IL-2; assay: Serum cytokine multiplex assay in FCA induced rats: IL-2; format: in vivo, Sprague Dawley rats; conditions: 10 mg/kg; vehicle control = 1.000
Description: as §1, §2

[9] = test system: IL-4; assay: Serum cytokine multiplex assay in FCA induced rats: IL-4; format: in vivo, Sprague Dawley rats; conditions: 10 mg/kg; vehicle control = 1.000
Description: as §1, §2

[10] = test system: IFNγ; assay: Serum cytokine multiplex assay in FCA induced rats: IFNγ; format: in vivo, Sprague Dawley rats; conditions: 10 mg/kg; vehicle control = 1.000
Description: as §1, §2

[11] = test system: IL-13; assay: Serum cytokine multiplex assay in FCA induced rats: IL-13; format: in vivo, Sprague Dawley rats; conditions: 10 mg/kg; vehicle control = 1.000
Description: as §1, §2

[12] = test system: IL-1β; assay: Serum cytokine multiplex assay in FCA induced rats: IL-1β; format: in vivo, Sprague Dawley rats; conditions: 10 mg/kg; vehicle control = 1.000
Description: as §1, §2

[13] = test system: Rantes; assay: Serum cytokine multiplex assay in FCA induced rats: Rantes; format: in vivo, Sprague Dawley rats; conditions: 10 mg/kg; vehicle control = 1.000
Description: as §1, §2

[14] = LPS induced THP-1 human monocytes

For `CCCCCCCCCC[C@@H](O)[C@H]1CC[C@H]([C@H]2CC[C@H]([C@H](O)CCCC[C@H](O)CCCCC[C@@H](O)CC3=C[C@H](C)OC3=O)O2)O1` [10-Hydroxyasimicin, 10-hydroxyasimicin], the “TNFα inhibition IC50” value [1, 14] was 3.21 ng/mL.
In the case of `CCCCCCCCCCCCCC[C@H]1O[C@H]1CC[C@@H]1O[C@@H]1CCCCCCCCCCC1=C[C@H](C)OC1=O` [Dieposabadelin, dieposabadelin], the “TNFα inhibition IC50” value [1, 14] is reported as >5 ng/mL.
For `C[C@]12C=CC(=O)C=C1CC[C@@H]1[C@@H]2[C@@H](O)C[C@@]2(C)[C@H]1CC[C@]2(O)C(=O)CO` [Prednisolone], the “Relative expression of MCP-1 in serum” value [2] was 0.802, the “Relative expression of IL-6 in serum” value [3] was 1.377 and the “reduction in paw volume vs control” value ([4]; Example 16 study) was 71%. The “reduction in paw volume vs control” value ([4]; Example 17 study) was 69.2%, the “Relative expression of Eotaxin in serum” value [5] was 0.992 and the “Relative expression of TNFα in serum” value [6] was 0.754. The “serum TNFα level vs control” value ([7]; Example 16 study) was “significant reduction”, the “serum TNFα level vs control” value ([7]; Example 17 study) was “significant reduction” and the “Relative expression of IL-2 in serum” value [8] was 0.515. For the same compound, the “Relative expression of IL-4 in serum” value [9] was 0.831, the “Relative expression of IFNγ in serum” value [10] was 1.496 and the “Relative expression of IL-13 in serum” value [11] was 3.120. The “Relative expression of IL-1β in serum” value [12] was 0.848 and the “Relative expression of Rantes in serum” value [13] was 0.874.
`CCCCCC(O)CCCCC(O)C1CCC(C2CCC(C(O)CCCCCCCCCCCCC3=CC(C)OC3=O)O2)O1` (centres unmarked) [Squamocin C, squamocin C] was tested, and the “TNFα inhibition IC50” value [1, 14] was 0.0249 ng/mL and the “TNFα inhibition IC50” value ([1]; THP-1 human monocytes) was 0.0249 ng/mL.
In the case of `CCCCCCCCCC[C@H](O)[C@H]1CC[C@H]([C@H]2CC[C@H]([C@H](O)CCCCCCCCCC[C@@H](O)CC3=C[C@H](C)OC3=O)O2)O1` [Squamocin G, squamocin G], the “TNFα inhibition IC50” value [1, 14] is reported as 0.124 ng/mL.
For `CCCCCCCCCCC(O)C1CCC(C2CCC(C(O)CCCCCCCCCCCCC3=CC(C)OC3=O)O2)O1` (centres unmarked) [Squamocin L, squamocin L], the “TNFα inhibition IC50” value [1, 14] was 0.116 ng/mL.
With `CCCCCCCCCC[C@H](O)[C@@H]1CC[C@@H]([C@H](O)CC[C@@H](O)[C@@H]2CC[C@@H](CCCCCCCCCC3=C[C@@H](C)OC3=O)O2)O1` [Squamostatin D, squamostatin D] the “TNFα inhibition IC50” value [1, 14] was 4.08 ng/mL.
In the case of isosquamocin, the “TNFα inhibition IC50” value [1, 14] is reported as 0.080 ng/mL and the TNFα inhibition ([1]; at 100 pg/mL) is reported as 63%.
